Series [1] in a line: Inhibition of IL2 production in antigen stimulated mouse 2B4.11 T hybridoma cells at 5 uM. It counts as functional.
A short description of series [2]: Inhibition of IL2 production in antigen stimulated mouse 2B4.11 T hybridoma cells at 10 uM. The class given is functional.
The nature of series [3]: Inhibition of IL2 production in antigen stimulated mouse 2B4.11 T hybridoma cells at 25 uM. The class given is functional.
Series [4] in a line: Apparent permeability across human Caco-2 cells. The class given is ADME, cell-based. For orientation: Passage across Caco-2 layers is used to estimate intestinal permeability.
Series [5] is described as follows: Effect on transfection efficacy in human D407 cells assessed as reduction of hVEGF expression after 24 hrs by ELISA. It counts as functional.
Series [6] can be described thus: Effect on transfection efficacy in human D407 cells assessed as reduction of hVEGF expression after 48 hrs by ELISA. The class given is functional.
Series [7] can be described thus: Toxicity assessed as induction of haemolysis in rat erythrocytes at 1 mM after 30 mins. It counts as cell-based, Erythrocyte. The settings on record: read-out: Activity.
The subject of series [8] is T-cell. Briefly: Inhibition of activation of antigen stimulated mouse 2B4.11 T cells assessed as IL2 production. The class given is functional, cell-based.

The values below come from ChEMBL document CHEMBL1143051, “Novel cationic lipophilic peptides for oligodeoxynucleotide delivery” (Bioorg Med Chem, 2007).

The Inhibition is the change of the read-out against control, counted positive when it falls. Usually Papp stands for the rate of passage across a membrane or cell layer, normalised by area and donor concentration.

Structures are written as SMILES. Square brackets hold non-standard residues; d marks the D form. Peptide text beside a SMILES is read from it. ξ: configuration not given here. ξGly(decyl) = CCCCCCCCCCC(N)C(=O)O

With `CC[C@H](C)[C@H](NC(=O)[C@H](CCCNC(=N)N)NC(=O)[C@H](CC(C)C)NC(=O)CN)C(=O)N[C@@H](CC(C)C)C(=O)N[C@@H](CC(C)C)C(=O)N[C@@H](CC(C)C)C(=O)N[C@@H](CCCCN)C(=O)N[C@H](C(=O)O)C(C)C` (H-GLRILLLKV-OH), the Inhibition in series [1] came out at 107%; in series [2], 102.53%; in series [3], 74.52%; in series [5], 55%; in series [6], 63%. In series [4], the Papp is 0.042 ×10⁻⁶ cm/s. In addition, in series [7], the hemolysis at 0.5 h, 1000 µM is below 2%.
Regarding `OC[C@@H](O)[C@@H](O)[C@H](O)[C@H](O)CO` [MANNITOL], the Papp in series [4] is 0.555 ×10⁻⁶ cm/s.
On to `CCCCCCCCCCC(N)C(=O)NCC(=O)N[C@@H](CC(C)C)C(=O)N[C@@H](CCCNC(=N)N)C(=O)N[C@H](C(=O)N[C@@H](CC(C)C)C(=O)N[C@@H](CC(C)C)C(=O)N[C@@H](CC(C)C)C(=O)N[C@@H](CCCCN)C(=O)N[C@H](C(=O)O)C(C)C)[C@@H](C)CC` (stereo partly specified) (H-[ξGly(decyl)]GLRILLLKV-OH), for which the Inhibition in series [1] is 105.7%; in series [2], 48.13%; in series [3], 81.17%; in series [5], 70%; in series [6], 76%. Besides, the Papp in series [4] stood at 0.11 ×10⁻⁶ cm/s. The hemolysis at 0.5 h, 1000 µM in series [7] is below 2%. In addition, in series [8], the Activity result is “Dose-dependent effect”.
